From article PMC7948497, “Iron uptake mediated by the plant-derived chelator nicotianamine in the small intestine” (The Journal of Biological Chemistry, 2020) come the findings set out here.

The assay concerns the target T1, hPAT1 (SLC36A1) (Homo sapiens, UniProt Q7Z2H8).
T1 construct: full open reading frame amplified from human small intestine RNA, pTNT vector, cRNA injected into Xenopus laevis oocytes; 476 residues, about 53 kDa
Nature of the assay: two-electrode voltage clamp of Xenopus oocytes, substrate-induced current; inhibition of NA-Fe(II)-elicited current. It counts as cell-based. The settings on record: pH 6.0, -60 mV; 0.5 mM NA-Fe(II) (figure legend; Methods say 1 mM).

T1 sequence (Q7Z2H8 whole entry): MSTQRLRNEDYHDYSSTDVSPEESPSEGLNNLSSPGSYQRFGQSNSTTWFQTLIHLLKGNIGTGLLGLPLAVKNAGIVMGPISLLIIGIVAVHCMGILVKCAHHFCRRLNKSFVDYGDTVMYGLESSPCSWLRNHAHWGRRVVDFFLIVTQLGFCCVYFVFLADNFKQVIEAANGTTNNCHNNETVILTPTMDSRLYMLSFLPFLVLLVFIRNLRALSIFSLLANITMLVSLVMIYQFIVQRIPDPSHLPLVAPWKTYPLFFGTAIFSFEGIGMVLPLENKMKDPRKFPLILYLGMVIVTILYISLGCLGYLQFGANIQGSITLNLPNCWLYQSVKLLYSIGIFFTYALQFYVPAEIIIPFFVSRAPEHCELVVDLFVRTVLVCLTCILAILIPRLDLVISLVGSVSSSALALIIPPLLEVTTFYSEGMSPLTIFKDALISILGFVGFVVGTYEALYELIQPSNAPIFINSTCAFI

On to `N[C@@H](Cc1c[nH]c2ccc(O)cc12)C(=O)O` [5-hydroxytryptophan], for which the “% of original current remaining at 5 mM” value came to 30.1%.
